# In patent publication US8609173B2, “Compositions comprising sweetness enhancers and methods of making them” (Senomyx Inc., priority 2008, dated 2013):
# Test system: Panelists
# Experiment: Paired comparison human taste test, chocolate milk
# Assay type: in vivo
# Experimental: Chocolate beverage powder can be prepared using, for example, the following ingredients and reconstituted in milk.
# A KitchenAide mixer is equipped with a wire whip attachment and used for mixing sugar and salt for 5 seconds. Lecithin is added and the resulting mixture is mixed for an additional 5 seconds. Cocoa, maltodextrin, and vanillin are added and the mixture is mixed for another 10 seconds.
# Chocolate milk preparations were prepared by combining a chocolate beverage mixture with milk and the appropriate amount of sugar, or sugar and 3-(4-amino-2,2-dioxide-1H-benzo[c][1,2,6]thiadiazin-5-yloxy)-2′,2′-dimethyl-N-propylpropanamide. 75.0 grams of Full Sugar Chocolate Beverage Powder was mixed into 250 mls of cold (40° F.) 2% lowfat milk and mixed with a wire whip until dissolved. 45.5 grams of the 50% Sugar Chocolate Beverage Powder was mixed into 250 mls of cold (40° F.) 2% lowfat milk and mixed with a wire whip until the powder was dissolve. The Compound A was dissolved into a 0.10% concentration level in propylene glycol and added to the chocolate milk, mixed with a wire whip until homogenous, about 2 minutes.
structure (smiles),measurement,setting,value
"CCCNC(=O)C(C)(C)COc1cccc2c1C(N)=NS(=O)(=O)N2 [3-(4-amino-2,2-dioxide-1H-benzo[c][1,2,6]thiadiazin-5-yloxy)-2′,2′-dimethyl-N-propylpropanamide]","Sample selected as sweeter by panelists, Total","Chocolate Milk with 50% Sugar + compound (7 ppm/(20 μM)) chosen, vs 100% Sugar, n = 51",28
same,Sweetness comparison (conclusion),"chocolate milk with 50% Sugar + compound (7 ppm/(20 μM)) vs full sugar, p>0.10",not significantly different in sweetness
